Experimental data taken from ChEMBL document CHEMBL1201862, “PubChem BioAssay data set” (2004).
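Following 48 hours of exposure in 96-well plates, responses at five concentrations were used to interpolate endpoints linearly. GI50 is the concentration that inhibits growth by half.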 Active and inactive are the calls of the source. Cut-off read from the data, not from the text of the source: active = GI50 up to about 1.1 µM and inactive = higher.

Assays:
Assay in all cases: inhibition of tumour cell growth, NCI panel, 48 h
786-0 = test system: 786-0
A498 = test system: A498
A549 = test system: A549
ACHN = test system: ACHN
BT-549 = test system: BT-549
CAKI-1 = test system: CAKI-1
CCRF-CEM = test system: CCRF-CEM
COLO 205 = test system: COLO 205
DU-145 = test system: DU-145
EKVX = test system: EKVX
HCC 2998 = test system: HCC 2998
HCT-116 = test system: HCT-116
HCT-15 = test system: HCT-15
HL-60 = test system: HL-60
HOP-62 = test system: HOP-62
HOP-92 = test system: HOP-92
HT-29 = test system: HT-29
Hs-578T = test system: Hs-578T
IGROV-1 = test system: IGROV-1
K562 = test system: K562
KM12 = test system: KM12
LOX IMVI = test system: LOX IMVI
M14 = test system: M14
MCF7 = test system: MCF7
MDA-MB-231 = test system: MDA-MB-231
MDA-MB-435 = test system: MDA-MB-435
MDA-N = test system: MDA-N
MOLT-4 = test system: MOLT-4
Malme-3M = test system: Malme-3M
NCI-H226 = test system: NCI-H226
NCI-H23 = test system: NCI-H23
NCI-H460 = test system: NCI-H460
NCI-H522 = test system: NCI-H522
NCI/ADR-RES = test system: NCI/ADR-RES
OVCAR-3 = test system: OVCAR-3
OVCAR-4 = test system: OVCAR-4
OVCAR-5 = test system: OVCAR-5
OVCAR-8 = test system: OVCAR-8
PC-3 = test system: PC-3
RPMI-8226 = test system: RPMI-8226
RXF 393 = test system: RXF 393
SF-268 = test system: SF-268
SF-295 = test system: SF-295
SF-539 = test system: SF-539
SK-MEL-28 = test system: SK-MEL-28
SK-MEL-2 = test system: SK-MEL-2
SK-MEL-5 = test system: SK-MEL-5
SK-OV-3 = test system: SK-OV-3
SN12C = test system: SN12C
SNB-19 = test system: SNB-19
SNB-75 = test system: SNB-75
SR = test system: SR
SW-620 = test system: SW-620
T47D = test system: T47D
TK-10 = test system: TK-10
U-251 = test system: U-251
UACC-257 = test system: UACC-257
UACC-62 = test system: UACC-62
UO-31 = test system: UO-31

Measured: GI50

COc1cc(Nc2nc3ccccc3nc2C(C)C)cc(OC)c1OC
90.4 µM: HCT-15
inactive: 786-0 > 100 µM | A498 > 100 µM | A549 > 100 µM | ACHN > 100 µM | BT-549 > 100 µM | CAKI-1 > 100 µM | CCRF-CEM > 100 µM | COLO 205 > 100 µM | DU-145 > 100 µM | EKVX 42.7 µM | HCC 2998 > 100 µM | HCT-116 > 100 µM | HL-60 > 100 µM | HOP-62 > 100 µM | HOP-92 34 µM | HT-29 36.4 µM | Hs-578T > 100 µM | IGROV-1 > 100 µM | K562 > 100 µM | KM12 > 100 µM | LOX IMVI > 100 µM | M14 > 100 µM | MCF7 > 100 µM | MDA-MB-231 > 100 µM | MDA-MB-435 > 100 µM | MDA-N > 100 µM | MOLT-4 > 100 µM | Malme-3M > 100 µM | NCI-H226 > 100 µM | NCI-H23 > 100 µM | NCI-H460 > 100 µM | NCI-H522 81.7 µM | NCI/ADR-RES 68.4 µM | OVCAR-3 > 100 µM | OVCAR-4 > 100 µM | OVCAR-5 > 100 µM | OVCAR-8 73.3 µM | PC-3 > 100 µM | RPMI-8226 83.2 µM | RXF 393 > 100 µM | SF-268 > 100 µM | SF-295 82.8 µM | SF-539 > 100 µM | SK-MEL-28 > 100 µM | SK-MEL-2 > 100 µM | SK-MEL-5 > 100 µM | SK-OV-3 > 100 µM | SN12C > 100 µM | SNB-19 > 100 µM | SNB-75 > 100 µM | SR > 100 µM | SW-620 > 100 µM | T47D > 100 µM | TK-10 > 100 µM | U-251 > 100 µM | UACC-257 > 100 µM | UACC-62 > 100 µM | UO-31 > 100 µM

COc1ccc(C2C3=C(COC3=O)OC(C)(C)Oc3cc4c(cc32)OCO4)cc1 (stereo not drawn)
inactive: 786-0 39.4 µM | A498 22.8 µM | A549 35.6 µM | ACHN 40 µM | BT-549 16.9 µM | CAKI-1 24.1 µM | CCRF-CEM 22.4 µM | COLO 205 16.1 µM | DU-145 32.5 µM | EKVX 35.5 µM | HCC 2998 40.5 µM | HCT-116 25.4 µM | HL-60 12 µM | HOP-62 23.6 µM | HOP-92 11.8 µM | HT-29 24.4 µM | Hs-578T 27.4 µM | IGROV-1 29.3 µM | K562 5.13 µM | KM12 8.81 µM | LOX IMVI 26.2 µM | M14 24.2 µM | MCF7 > 64.4 µM | MDA-MB-231 18.6 µM | MDA-MB-435 3.51 µM | MDA-N 2.96 µM | MOLT-4 23.3 µM | Malme-3M 17.7 µM | NCI-H226 > 55.3 µM | NCI-H23 34.4 µM | NCI-H460 26.7 µM | NCI-H522 17.4 µM | NCI/ADR-RES 18.5 µM | OVCAR-3 36.6 µM | OVCAR-4 33.9 µM | OVCAR-5 56.8 µM | OVCAR-8 55.8 µM | PC-3 15.1 µM | RPMI-8226 34.1 µM | RXF 393 36.6 µM | SF-268 44.6 µM | SF-295 35.2 µM | SF-539 24.2 µM | SK-MEL-28 43.1 µM | SK-MEL-2 37.8 µM | SK-MEL-5 20.4 µM | SK-OV-3 50.1 µM | SN12C 37 µM | SNB-19 45.3 µM | SNB-75 9.46 µM | SR 43.1 µM | SW-620 21.8 µM | T47D 26.3 µM | TK-10 43.5 µM | U-251 31.8 µM | UACC-257 38.3 µM | UACC-62 25.5 µM | UO-31 28.8 µM
23.7 µM: HCT-15
